Measured values taken from patent publication EP1561465A2, “Methods of use of fluoroquinolone compounds against bacteria” (LG Life Sciences, Ltd., priority 1999, dated 2001).
Values after ≈ are worked out from the molar mass of the structure shown. Like-named read-outs stand apart in the source and are kept apart here.

Key:
Type in all cases: cell-based
[1] = test system: Streptococcus pneumoniae; test: MIC by NCCLS broth microdilution, 1100 Japanese clinical isolates 1997-1998; conditions: for MIC50 / MIC90 / MIC: Streptococcus pneumoniae; for MIC50: read-out: MIC50; for MIC90: read-out: MIC90; for MIC: Streptococcus pneumoniae quinolone resistant
[2] = test system: Streptococcus pneumoniae; test: MIC by E-test (broth microdilution for gemifloxacin), 107 pneumococcal carrier isolates, Athens 1998; conditions: E-test; for MIC Range: in µg/mL (unit assumed); for MIC50 / MIC90: Streptococcus pneumoniae; for MIC50: read-out: MIC50; for MIC90: read-out: MIC90
Description: Susceptibility testing was performed by agar dilution or epsilometer method (E-test), as recommended by the NCCLS. […] The susceptibility profiles of the strains were assessed using the Epsilometer method (E-test). The isolates were subdivided into two groups according to their penicillin susceptibility patterns (penicillin-susceptible and penicillin-intermediate.

[3] = test system: Enterobacter cloacae; test: MIC by NCCLS broth microdilution, 1100 Japanese clinical isolates 1997-1998; conditions: Enterobacter cloacae (n=40)
[4] = test system: Pseudomonas aeruginosa; test: MIC by agar dilution (NCCLS), 322 nosocomial Gram negative isolates, Athens 1998; conditions: n = 57 isolates
[5] = test system: Mycobacterium tuberculosis (MTB); test: MIC by proportions method (NCCLS M24-T, 1995), 82 MTB strains; conditions: compared with the other quinolones
[6] = test system: Haemophilus influenzae; test: MIC by broth microdilution (NCCLS), dried MicroScan panels, clinical isolates 1998-1999; conditions: for MIC90: Haemophilus influenzae
[7] = test system: P. aeruginosa; test: MIC by two-fold serial agar dilution, quinolone-resistant strains; conditions: Pseudomonas aeruginosa
[8] = test system: Enterococcus faecium; test: MIC by agar macrodilution (NCCLS), 373 Gram positive isolates, Athens 1998
[9] = test system: Salmonella spp.; test: MIC by NCCLS broth microdilution, 1100 Japanese clinical isolates 1997-1998; conditions: Salmonella spp. (n=29)
[10] = test system: Enterococcus faecalis; test: MIC by agar dilution (NCCLS), 411 isolates Buenos Aires 1998-99; conditions: Enterococcus faecalis (n = 48)
[11] = test system: Haemophilus influenzae; test: MIC by NCCLS reference broth microdilution, 450 respiratory tract pathogens; conditions: Haemophilus influenzae; for MIC90: read-out: MIC90
[12] = test system: Enterobacter spp.; test: MIC by agar dilution (NCCLS), 322 nosocomial Gram negative isolates, Athens 1998; conditions: n = 57 isolates
[13] = test system: Streptococcus pneumoniae; test: MIC by NCCLS reference broth microdilution, 450 respiratory tract pathogens; conditions: for MIC / MIC50 / MIC90: Streptococcus pneumoniae
[14] = test system: Salmonella spp.; test: MIC by agar dilution (NCCLS M7-A4), 288 enteropathogenic isolates, eight quinolones; conditions: for MIC: ciprofloxacin MIC ≥[…], read-out: MIC
[15] = test system: Moraxella catarrhalis; test: MIC by NCCLS reference broth microdilution, 450 respiratory tract pathogens
[16] = Streptococcus pneumoniae amoxicillin resistant (n=40)
[17] = Streptococcus pneumoniae amoxicillin susceptible (n=35)
[18] = Streptococcus pneumoniae erythromycin resistant (n=34)
[19] = Streptococcus pneumoniae erythromycin susceptible (n=11)
[20] = Penicillin-intermediate S. pneumoniae (n = 24)
[21] = Penicillin-susceptible S. pneumoniae (n = 107)
[22] = Haemophilus influenzae (300 isolates)
[23] = Haemophilus influenzae (n = 100)
[24] = Streptococcus pneumoniae (n = 100)
[25] = erythromycin resistant M phenotype (n = 16)
[26] = penicillin intermediate (n = 16)
[27] = penicillin susceptible (n = 20)

Which results are given for `CO/N=C1\CN(c2nc3c(cc2F)c(=O)c(C(=O)O)cn3C2CC2)CC1CN` (racemic) [Gemifloxacin, (R,S)-7-(3-aminomethyl-4-methoxyiminopyrrolidin-1-yl)-1-cyclopropyl-6-fluoro-4-oxo-1,4-dihydro-1,8-naphthyridine-3-carboxylic acid]?
MIC Range [1, 16]: 0.016 to 0.125 µg/mL; MIC Range [1, 17]: ≤0.008 to 0.125 µg/mL; MIC Range [1, 18]: ≤0.008 to 0.125 µg/mL; MIC Range [1, 19]: 0.016 to 0.032 µg/mL; MIC50 [1, 16]: 0.032 µg/mL (≈ 0.0822 µM); MIC90 [1, 16]: 0.032 µg/mL (≈ 0.0822 µM); MIC50 [1, 17]: 0.016 µg/mL (≈ 0.0411 µM); MIC90 [1, 17]: 0.032 µg/mL (≈ 0.0822 µM); MIC50 [1, 18]: 0.016 µg/mL (≈ 0.0411 µM); MIC90 [1, 18]: 0.032 µg/mL (≈ 0.0822 µM); MIC50 [1, 19]: 0.032 µg/mL (≈ 0.0822 µM); MIC90 [1, 19]: 0.032 µg/mL (≈ 0.0822 µM); MIC ([1]; strain TMS1): 0.032 µg/mL (≈ 0.0822 µM); MIC ([1]; strain TMS2): 0.5 µg/mL (≈ 1.28 µM); activity higher than that of the other quinolones ([1]; quinolone-resistant S. pneumoniae): 2-128 fold; MIC Range [2, 20]: 0.004-0.125; MIC Range [2, 21]: 0.002-0.19; MIC50 [2, 20]: 0.064 µg/mL (≈ 0.164 µM); MIC90 [2, 20]: 0.23 µg/mL (≈ 0.591 µM); MIC50 [2, 21]: 0.032 µg/mL (≈ 0.0822 µM); MIC90 [2, 21]: 0.064 µg/mL (≈ 0.164 µM); MIC50 [3]: 0.032 µg/mL (≈ 0.0822 µM); MIC90 [3]: 1 µg/mL (≈ 2.57 µM); MIC Range [3]: ≤0.008 to 2 µg/mL; MIC50 [4]: 1 µg/mL (≈ 2.57 µM); MIC90 [4]: > 64 µg/mL; in vitro activity against MTB [5]: lower in vitro activity; activity superior to that of levofloxacin ([6]; H. influenzae): four-fold; MIC50 [6, 22]: 0.004 µg/mL (≈ 0.0103 µM); MIC Range [6, 22]: ≤0.0015 to 0.12 µg/mL; MIC90 [6, 22]: 0.008 µg/mL (≈ 0.0205 µM); MIC90 ([6]; β-lactamase negative (234)): 0.008 µg/mL (≈ 0.0205 µM); MIC90 ([6]; β-lactamase positive (66)): 0.03 µg/mL (≈ 0.077 µM); MIC [7]: 2 µg/mL (≈ 5.14 µM); MIC distribution (µg/ml) 0.03 [8]: 0; MIC distribution (µg/ml) 0.06 [8]: 1; MIC distribution (µg/ml) 0.125 [8]: 4; MIC distribution (µg/ml) 0.25 [8]: 0; MIC distribution (µg/ml) 0.5 [8]: 4; MIC distribution (µg/ml) 1 [8]: 0; MIC distribution (µg/ml) 2 [8]: 0; MIC distribution (µg/ml) 4 [8]: 2; MIC distribution (µg/ml) 16 [8]: 3; MIC distribution (µg/ml) ≤0.015 [8]: 0; MIC distribution (µg/ml) ≥32 [8]: 0; MIC50 ([8]; Enterococcus faecium, n = 14 isolates, read-out: MIC50): 0.25 µg/mL (≈ 0.642 µM); MIC90 ([8]; Enterococcus faecium, n = 14 isolates, read-out: MIC90): 16 µg/mL (≈ 41.1 µM); MIC Range ([8]; n = 14 isolates): 0.06 to 16 µg/mL; MIC distribution (µg/ml) 8 ([8]; number of isolates at MIC 8 µg/ml, n = 14): 8; MIC50 [9]: 0.032 µg/mL (≈ 0.0822 µM); MIC90 [9]: 0.032 µg/mL (≈ 0.0822 µM); MIC90 [10]: 2 µg/mL (≈ 5.14 µM); MIC Range [10]: 0.008 to 8 µg/mL; MIC [11, 23]: 0.0075 to 0.06 µg/mL (≈ 0.0193 to 0.154 µM); MIC50 [11, 23]: ≤ 0.0075 µg/mL; MIC90 [11, 23]: ≤ 0.00075 µg/mL; MIC ([11]; β-lactamase negative (n = 80)): 0.0075 to 0.015 µg/mL (≈ 0.0193 to 0.0385 µM); MIC50 ([11]; β-lactamase negative (n = 80)): ≤ 0.0075 µg/mL; MIC90 ([11]; β-lactamase negative (n = 80)): ≤ 0.0075 µg/mL; MIC ([11]; β-lactamase positive (n = 20)): 0.0075 to 0.06 µg/mL (≈ 0.0193 to 0.154 µM); MIC50 ([11]; β-lactamase positive (n = 20)): ≤ 0.0075 µg/mL; MIC90 ([11]; β-lactamase positive (n = 20)): 0.015 µg/mL (≈ 0.0385 µM); MIC50 ([12]; Enterobacter, read-out: MIC50): 0.06 µg/mL (≈ 0.154 µM); MIC90 ([12]; Enterobacter, read-out: MIC90): 16 µg/mL (≈ 41.1 µM); MIC Range [12]: ≤0.03 to 64 µg/mL; times more potent than all comparator agents ([13]; S. pneumoniae): 4-64 times; MIC [13, 24]: 0.0075 to 0.03 µg/mL (≈ 0.0193 to 0.077 µM); MIC50 [13, 24]: 0.015 µg/mL (≈ 0.0385 µM); MIC90 [13, 24]: 0.03 µg/mL (≈ 0.077 µM); MIC [13, 25]: 0.015 to 0.05 µg/mL (≈ 0.0385 to 0.128 µM); MIC50 [13, 25]: 0.015 µg/mL (≈ 0.0385 µM); MIC90 [13, 25]: 0.03 µg/mL (≈ 0.077 µM); MIC ([13]; erythromycin resistant MLSB phenotype (n = 16)): 0.0075 to 0.03 µg/mL (≈ 0.0193 to 0.077 µM); MIC ([13]; multi-drug resistant (n = 16)): 0.0075 to 0.03 µg/mL (≈ 0.0193 to 0.077 µM); MIC50 ([13]; multi-drug resistant (n = 16)): 0.015 µg/mL (≈ 0.0385 µM); MIC90 ([13]; multi-drug resistant (n = 16)): 0.03 µg/mL (≈ 0.077 µM); MIC [13, 26]: 0.0075 to 0.03 µg/mL (≈ 0.0193 to 0.077 µM); MIC50 [13, 26]: 0.015 µg/mL (≈ 0.0385 µM); MIC90 [13, 26]: 0.015 µg/mL (≈ 0.0385 µM); MIC ([13]; penicillin resistant (n = 18)): 0.0075 to 0.06 µg/mL (≈ 0.0193 to 0.154 µM); MIC50 ([13]; penicillin resistant (n = 18)): ≤ 0.0075 µg/mL; MIC90 ([13]; penicillin resistant (n = 18)): 0.06 µg/mL (≈ 0.154 µM); MIC [13, 27]: 0.0075 to 0.03 µg/mL (≈ 0.0193 to 0.077 µM); MIC50 [13, 27]: 0.015 µg/mL (≈ 0.0385 µM); MIC90 [13, 27]: 0.03 µg/mL (≈ 0.077 µM); MIC ([14]; S. hadar (n = 2)): 0.25 µg/mL (≈ 0.642 µM); MIC ([14]; S. newport (n = 1)): 0.25 µg/mL (≈ 0.642 µM); MIC ([14]; S. virchow (n = 2)): 0.12 µg/mL (≈ 0.308 µM); % Susceptible ([14]; Salmonella spp. (n = 106)): 100%; MIC50 ([14]; Salmonella spp. (n = 106)): 0.03 µg/mL (≈ 0.077 µM); MIC90 ([14]; Salmonella spp. (n = 106)): 0.12 µg/mL (≈ 0.308 µM); MIC Range ([14]; Salmonella spp. (n = 106)): ≤0.015 to 0.25 µg/mL; MIC ([14]; Salmonella, S. tshiongwe (n = 1)): 0.25 µg/mL (≈ 0.642 µM); MICs lower than those of the other fluoroquinolones studied ([14]; six Salmonella spp. with ciprofloxacin MICs ≥[…]): 1-4 dilutions; MIC ([15]; Moraxella catarrhalis (n = 50)): 0.00375 to 0.03 µg/mL (≈ 0.00963 to 0.077 µM); MIC50 ([15]; Moraxella catarrhalis (n = 50)): 0.015 µg/mL (≈ 0.0385 µM); MIC90 ([15]; Moraxella catarrhalis (n = 50)): 0.015 µg/mL (≈ 0.0385 µM); MIC ([15]; β-lactamase negative (n = 13)): 0.00375 to 0.015 µg/mL (≈ 0.00963 to 0.0385 µM); MIC50 ([15]; β-lactamase negative (n = 13)): 0.015 µg/mL (≈ 0.0385 µM); MIC90 ([15]; β-lactamase negative (n = 13)): 0.015 µg/mL (≈ 0.0385 µM); MIC ([15]; β-lactamase positive (n = 37)): 0.00375 to 0.03 µg/mL (≈ 0.00963 to 0.077 µM); MIC50 ([15]; β-lactamase positive (n = 37)): 0.015 µg/mL (≈ 0.0385 µM); MIC90 ([15]; β-lactamase positive (n = 37)): 0.015 µg/mL (≈ 0.0385 µM)
